ChEMBL document CHEMBL4052790, “Identification of a Novel TRPM8 Agonist from Nutmeg: A Promising Cooling Compound” (ACS Med Chem Lett, 2017)
The source made the active and inactive calls. The rule behind the calls is not given here.

Legend:
[1] = biological target: T1, Transient receptor potential cation channel subfamily M member 8 (Homo sapiens, UniProt Q7Z2W7); test: Agonist activity at full length recombinant human TRPM8 expressed in HEK293 cells assessed as increase in intracellular Ca2+ level pre-incubated for 5 mins by Fluo4-AM dye-based fluorescence assay; format: cell-based
Target sequence in this assay (Q7Z2W7 whole entry): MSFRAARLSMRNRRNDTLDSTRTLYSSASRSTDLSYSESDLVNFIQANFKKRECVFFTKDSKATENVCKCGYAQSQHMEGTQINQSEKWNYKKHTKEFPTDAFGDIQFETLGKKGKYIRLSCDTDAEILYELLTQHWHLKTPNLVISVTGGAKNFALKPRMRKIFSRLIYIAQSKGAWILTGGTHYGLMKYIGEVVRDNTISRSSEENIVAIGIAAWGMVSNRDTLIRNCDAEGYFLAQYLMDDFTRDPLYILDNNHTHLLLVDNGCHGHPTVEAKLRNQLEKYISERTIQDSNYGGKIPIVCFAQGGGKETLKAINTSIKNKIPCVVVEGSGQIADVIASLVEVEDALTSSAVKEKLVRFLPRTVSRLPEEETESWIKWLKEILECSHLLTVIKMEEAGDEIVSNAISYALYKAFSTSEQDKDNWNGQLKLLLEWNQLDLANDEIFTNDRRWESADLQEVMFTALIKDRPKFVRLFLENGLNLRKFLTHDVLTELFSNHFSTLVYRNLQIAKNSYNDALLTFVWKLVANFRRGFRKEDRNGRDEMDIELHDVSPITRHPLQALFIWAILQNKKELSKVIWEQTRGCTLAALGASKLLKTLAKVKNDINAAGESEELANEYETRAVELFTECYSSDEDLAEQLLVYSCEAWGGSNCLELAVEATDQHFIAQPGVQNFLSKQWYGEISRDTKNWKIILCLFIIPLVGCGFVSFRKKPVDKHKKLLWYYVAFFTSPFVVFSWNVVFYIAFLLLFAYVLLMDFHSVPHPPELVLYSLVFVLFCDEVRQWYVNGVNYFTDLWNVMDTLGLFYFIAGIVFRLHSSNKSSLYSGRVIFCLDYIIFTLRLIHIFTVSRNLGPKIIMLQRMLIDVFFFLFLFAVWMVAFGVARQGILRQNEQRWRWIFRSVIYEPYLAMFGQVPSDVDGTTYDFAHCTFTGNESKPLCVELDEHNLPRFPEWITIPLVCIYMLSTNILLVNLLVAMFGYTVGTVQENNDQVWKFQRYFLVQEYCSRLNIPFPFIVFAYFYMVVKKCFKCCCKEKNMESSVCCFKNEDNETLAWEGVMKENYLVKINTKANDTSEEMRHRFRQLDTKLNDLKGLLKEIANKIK

[2] = biological target: T1, Transient receptor potential cation channel subfamily M member 8; test: Agonist activity at full length recombinant human TRPM8 expressed in HEK293 cells assessed as additive potentiation of 1 and 3 uM l-menthol-stimulated intracellular Ca2+ level at 0.03 uM by Fluo4-AM dye-based fluorescence assay; format: cell-based
Target sequence in this assay (Q7Z2W7 whole entry, looked up): as the sequence (Q7Z2W7 whole entry) above

[3] = biological target: Transient receptor potential cation channel subfamily V member 1 (Homo sapiens) (UniProt Q8NER1); test: Agonist activity at recombinant human TRPV1 expressed in HEK293 cells assessed as increase in intracellular Ca2+ level pre-incubated for 5 mins by Fluo4-AM dye-based fluorescence assay; format: cell-based
Homo sapiens [4] = species: Homo sapiens; test: Induction of cooling effect in human at 0.02% measured after few mins after washing by simple mouth washing method; format: functional
[5] = biological target: Transient receptor potential cation channel subfamily V member 4 (Homo sapiens) (UniProt Q9HBA0); test: Agonist activity at recombinant human TRPV4 expressed in HEK293 cells assessed as increase in intracellular Ca2+ level pre-incubated for 5 mins by Fluo4-AM dye-based fluorescence assay; format: cell-based
[6] = test system: Transient receptor potential cation channel subfamily M member 8 (Homo sapiens), Q7Z2W7 [Y745H]; test: Agonist activity at full length recombinant human TRPM8 Y745H mutant expressed in HEK293 cells at 0.3 to 3 uM by Fluo4-AM dye-based fluorescence assay; format: cell-based
[7] = biological target: T2, Transient receptor potential cation channel subfamily V member 3 (Homo sapiens) (UniProt Q8NET8); test: Agonist activity at recombinant human TRPV3 expressed in HEK293 cells assessed as increase in intracellular Ca2+ level pre-incubated for 5 mins by Fluo4-AM dye-based fluorescence assay; format: cell-based
T2 sequence (whole entry): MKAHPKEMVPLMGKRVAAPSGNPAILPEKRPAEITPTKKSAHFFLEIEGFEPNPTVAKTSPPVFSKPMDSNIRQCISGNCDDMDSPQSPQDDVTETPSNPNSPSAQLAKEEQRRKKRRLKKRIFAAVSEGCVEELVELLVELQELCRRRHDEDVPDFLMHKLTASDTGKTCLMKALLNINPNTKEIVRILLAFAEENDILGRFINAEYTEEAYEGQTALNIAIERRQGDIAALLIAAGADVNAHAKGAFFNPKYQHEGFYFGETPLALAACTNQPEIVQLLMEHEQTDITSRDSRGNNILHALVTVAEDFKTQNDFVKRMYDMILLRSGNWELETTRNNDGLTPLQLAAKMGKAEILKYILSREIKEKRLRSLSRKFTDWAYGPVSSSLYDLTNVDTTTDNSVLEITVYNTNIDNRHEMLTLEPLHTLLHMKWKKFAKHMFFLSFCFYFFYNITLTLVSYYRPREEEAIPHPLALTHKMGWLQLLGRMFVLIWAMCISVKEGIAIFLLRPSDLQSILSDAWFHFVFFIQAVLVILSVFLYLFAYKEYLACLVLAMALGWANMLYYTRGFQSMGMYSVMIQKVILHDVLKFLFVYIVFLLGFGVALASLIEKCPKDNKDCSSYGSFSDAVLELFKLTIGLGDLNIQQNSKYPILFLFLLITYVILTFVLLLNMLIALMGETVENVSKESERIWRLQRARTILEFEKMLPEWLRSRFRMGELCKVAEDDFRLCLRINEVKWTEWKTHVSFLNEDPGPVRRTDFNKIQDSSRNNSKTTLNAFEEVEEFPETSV

[8] = biological target: Transient receptor potential cation channel subfamily A member 1 (Homo sapiens, UniProt O75762); test: Agonist activity at recombinant human TRPA1 expressed in HEK293 cells assessed as increase in intracellular Ca2+ level pre-incubated for 5 mins by Fluo4-AM dye-based fluorescence assay; format: cell-based
Homo sapiens [9] = species: Homo sapiens; test: Induction of cooling effect in human at 0.02% measured immediately after washing by simple mouth washing method; format: functional

Sequence of Transient receptor potential cation channel subfamily A member 1 (O75762 whole entry): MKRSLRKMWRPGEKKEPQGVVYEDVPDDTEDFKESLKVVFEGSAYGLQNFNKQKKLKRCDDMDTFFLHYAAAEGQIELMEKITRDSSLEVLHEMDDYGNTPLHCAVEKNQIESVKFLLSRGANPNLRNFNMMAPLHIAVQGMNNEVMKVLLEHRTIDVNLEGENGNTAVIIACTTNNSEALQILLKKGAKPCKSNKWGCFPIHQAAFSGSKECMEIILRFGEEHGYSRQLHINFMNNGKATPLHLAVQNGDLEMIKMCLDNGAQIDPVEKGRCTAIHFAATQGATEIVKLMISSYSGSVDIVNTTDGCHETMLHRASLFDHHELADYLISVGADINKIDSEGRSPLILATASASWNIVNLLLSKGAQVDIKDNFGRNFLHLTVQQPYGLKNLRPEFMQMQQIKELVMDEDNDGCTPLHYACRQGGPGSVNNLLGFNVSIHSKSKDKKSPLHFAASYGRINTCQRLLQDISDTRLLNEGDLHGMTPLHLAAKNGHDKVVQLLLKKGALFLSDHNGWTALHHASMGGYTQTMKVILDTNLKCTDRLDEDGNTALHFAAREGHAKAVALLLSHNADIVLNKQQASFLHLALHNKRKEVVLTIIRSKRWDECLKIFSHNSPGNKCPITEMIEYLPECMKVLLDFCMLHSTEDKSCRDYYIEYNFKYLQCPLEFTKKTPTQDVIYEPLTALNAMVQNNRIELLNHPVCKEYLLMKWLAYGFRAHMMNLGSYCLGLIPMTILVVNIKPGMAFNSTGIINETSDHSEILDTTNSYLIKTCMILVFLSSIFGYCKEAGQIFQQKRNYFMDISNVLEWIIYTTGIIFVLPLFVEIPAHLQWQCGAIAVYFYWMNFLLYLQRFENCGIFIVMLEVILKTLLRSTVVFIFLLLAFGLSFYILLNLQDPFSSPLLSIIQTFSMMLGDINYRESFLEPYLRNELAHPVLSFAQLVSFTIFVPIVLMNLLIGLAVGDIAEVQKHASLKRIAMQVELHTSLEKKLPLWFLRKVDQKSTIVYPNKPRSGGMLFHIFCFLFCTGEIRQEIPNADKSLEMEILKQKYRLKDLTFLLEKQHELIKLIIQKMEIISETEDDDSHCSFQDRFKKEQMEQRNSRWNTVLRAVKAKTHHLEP
Sequence of Transient receptor potential cation channel subfamily M member 8 (Homo sapiens), Q7Z2W7 [Y745H] (Q7Z2W7 whole entry Y745H): as the sequence (Q7Z2W7 whole entry) above, with Y745H counted along it
Sequence of Transient receptor potential cation channel subfamily V member 1 (Homo sapiens) (Q8NER1 whole entry): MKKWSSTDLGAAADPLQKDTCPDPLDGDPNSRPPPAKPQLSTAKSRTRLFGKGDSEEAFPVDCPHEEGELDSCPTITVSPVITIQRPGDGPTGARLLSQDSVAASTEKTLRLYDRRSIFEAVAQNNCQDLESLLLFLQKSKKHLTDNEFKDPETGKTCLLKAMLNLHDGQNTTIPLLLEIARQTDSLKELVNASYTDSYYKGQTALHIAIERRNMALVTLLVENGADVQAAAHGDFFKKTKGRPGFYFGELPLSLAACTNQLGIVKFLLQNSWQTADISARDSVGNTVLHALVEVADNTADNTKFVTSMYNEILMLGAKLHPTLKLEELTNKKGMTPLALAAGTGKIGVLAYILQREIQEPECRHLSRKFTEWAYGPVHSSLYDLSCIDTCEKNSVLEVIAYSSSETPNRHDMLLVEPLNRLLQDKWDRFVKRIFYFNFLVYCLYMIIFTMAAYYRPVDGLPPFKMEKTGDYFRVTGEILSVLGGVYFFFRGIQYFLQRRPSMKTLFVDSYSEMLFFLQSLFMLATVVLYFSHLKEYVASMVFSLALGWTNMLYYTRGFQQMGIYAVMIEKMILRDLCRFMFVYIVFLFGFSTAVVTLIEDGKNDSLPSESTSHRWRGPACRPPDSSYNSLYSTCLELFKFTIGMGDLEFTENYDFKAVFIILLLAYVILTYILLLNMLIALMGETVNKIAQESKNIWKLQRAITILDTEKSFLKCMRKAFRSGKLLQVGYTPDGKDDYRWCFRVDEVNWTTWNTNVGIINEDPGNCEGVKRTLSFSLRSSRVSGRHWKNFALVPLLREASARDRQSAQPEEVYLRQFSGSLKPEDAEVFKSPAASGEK
Sequence of Transient receptor potential cation channel subfamily V member 4 (Homo sapiens) (Q9HBA0 whole entry): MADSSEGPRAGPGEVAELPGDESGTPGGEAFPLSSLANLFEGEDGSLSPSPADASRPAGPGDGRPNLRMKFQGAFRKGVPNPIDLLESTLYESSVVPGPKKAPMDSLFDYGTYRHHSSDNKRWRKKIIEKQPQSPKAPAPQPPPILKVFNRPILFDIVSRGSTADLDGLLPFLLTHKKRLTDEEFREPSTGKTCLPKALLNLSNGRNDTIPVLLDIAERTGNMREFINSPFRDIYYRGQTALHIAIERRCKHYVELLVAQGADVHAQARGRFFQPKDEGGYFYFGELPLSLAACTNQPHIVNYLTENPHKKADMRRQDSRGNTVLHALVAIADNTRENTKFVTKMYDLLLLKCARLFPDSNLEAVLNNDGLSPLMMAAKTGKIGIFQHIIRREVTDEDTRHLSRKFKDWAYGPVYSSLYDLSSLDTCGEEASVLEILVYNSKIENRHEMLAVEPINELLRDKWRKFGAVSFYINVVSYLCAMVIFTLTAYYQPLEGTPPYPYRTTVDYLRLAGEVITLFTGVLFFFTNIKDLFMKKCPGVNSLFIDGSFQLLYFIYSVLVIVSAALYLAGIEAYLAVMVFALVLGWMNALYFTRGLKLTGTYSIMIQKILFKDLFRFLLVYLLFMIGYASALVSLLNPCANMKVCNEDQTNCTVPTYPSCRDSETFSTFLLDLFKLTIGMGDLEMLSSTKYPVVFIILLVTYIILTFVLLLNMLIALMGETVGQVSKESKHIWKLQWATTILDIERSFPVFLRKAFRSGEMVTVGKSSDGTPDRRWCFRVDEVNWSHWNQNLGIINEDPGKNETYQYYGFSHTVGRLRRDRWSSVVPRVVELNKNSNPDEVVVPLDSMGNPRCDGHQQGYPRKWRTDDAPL

Compound | EC50 [1] | further results
C=CCc1cc(OC)c(OC(C)C(OC2CCCCC2)c2ccc(O)c(OC)c2)c(OC)c1 (configuration not stated) | 54 nM | –
C=CCc1cc(OC)c(OC(C)C(OCC(C)C)c2ccc(O)c(OC)c2)c(OC)c1 (configuration not stated) | 138 nM | –
C=CCc1cc(OC)c(OC(C)C(OC(C)C)c2ccc(O)c(OC)c2)c(OC)c1 (configuration not stated) | 82 nM | –
C=CCc1cc(OC)c(OC(C)C(OCC)c2ccc(O)c(OC)c2)c(OC)c1 (mixture of isomers) | 332 nM | Activity [2]: Active; Activity [3]: inactive; Activity (Homo sapiens [4]): Active; Activity [5]: inactive; Activity [6]: Active; Activity [7]: inactive; EC50 [8]: 19100 nM
C=CCc1cc(OC)c(OC(C)C(O)c2ccc(O)c(OC)c2)c(OC)c1 (racemic) | > 10000 nM | –
C=CCc1cc(OC)c(O[C@H](C)[C@H](OCC)c2ccc(O)c(OC)c2)c(OC)c1 | 583 nM | –
C=CCc1cc(OC)c(OC(C)C(OCCOCCCC)c2ccc(O)c(OC)c2)c(OC)c1 (configuration not stated) | 153 nM | –
C=CCc1cc(OC)c(OC(C)C(OCCCCCC)c2ccc(O)c(OC)c2)c(OC)c1 (configuration not stated) | 329 nM | –
C=CCc1cc(OC)c(O[C@H](C)[C@@H](OCC)c2ccc(O)c(OC)c2)c(OC)c1 | 1150 nM | –
C=CCc1cc(OC)c(OC(C)C(OC)c2ccc(O)c(OC)c2)c(OC)c1 (configuration not stated) | 3450 nM | –
C=CCc1cc(OC)c(O[C@H](C)[C@@H](OC(C)=O)c2ccc(OC)c(OC)c2)c(OC)c1 | > 10000 nM | –
CC(C)[C@@H]1CC[C@@H](C)C[C@H]1O [LEVOMENTHOL] | – | EC50 [8]: 96000 nM; Activity (Homo sapiens [9]): Active
C=CCc1cc(OC)c(OC(C)C(O[C@@H]2C[C@H](C)CC[C@H]2C(C)C)c2ccc(O)c(OC)c2)c(OC)c1 (some centres not stated) | 28 nM | –
C=CCc1cc(OC)c(O[C@@H](C)[C@H](OCC)c2ccc(O)c(OC)c2)c(OC)c1 | 1130 nM | –
C=CCc1cc(OC)c(OC(C)C(O[C@H]2C[C@@H](C)CC[C@@H]2C(C)C)c2ccc(O)c(OC)c2)c(OC)c1 (some centres not stated) | 11 nM | –
C=CCc1cc(OC)c(OC(C)C(OCCCCCCCCCC)c2ccc(O)c(OC)c2)c(OC)c1 (configuration not stated) | 66 nM | –
C=CCc1cc(OC)c(O[C@H](C)[C@@H](OC(C)=O)c2ccc(O)c(OC)c2)c(OC)c1 | > 10000 nM | –
C=CCc1cc(OC)c(OC(C)C(OCCCCCCCC)c2ccc(O)c(OC)c2)c(OC)c1 (configuration not stated) | 86 nM | –
C=CCc1cc(OC)c(O[C@H](C)[C@@H](O)c2ccc(OC)c(OC)c2)c(OC)c1 | > 10000 nM | –
